From patent publication US20220395500A1, “SMALL MOLECULE ACTIVATORS OF INTERFERON REGULATORY FACTOR 3 AND METHODS OF USE THEREOF” (Neuralexo, Inc., priority 2020, published 2022)

Tested on: ISRE-firefly luciferase reporter in RAW264.7 cells
Test: RAW264.7 ISRE-firefly luciferase reporter assay
Type: cell-based, mouse
From the text: Data is depicted as fold increase ISRE activity vs matched vehicle, plotted against log[agonist] (M).
To characterize a small directed subset of molecules known to activate IRF3, mouse macrophage cells (RAW264.7) containing an ISRE-firefly luciferase reporter with a constitutively active renilla luciferase internal control for normalization (Promega) was utilized. IRF3 can activate ISRE through direct binding and via feed-forward mechanisms through potent induction of IFNβ. […] Specifically, RAW264.7 cells containing ISRE firefly luciferase reporter were treated with indicated compounds for 3 hours and luciferase activity was determined.

- EC50 (Mus musculus, RAW264.7, expanded dose-response study, read-out: EC50 for activating mouse ISRE): ~16 µM
Compound: Cc1ccc2c(=O)c3cccc(CC(=O)O)c3oc2c1C [DMXAA, 5,6-dimethylxanthenone-4-acetic acid]
- ISRE activation (RAW264.7, 3 hours post-treatment, 96-well): most potent activators
